Assays:
[1] = system: OVCAR3 cells; test: Cell proliferation inhibition assay (MTT, 7 days); format: cell-based; settings: Homo sapiens, OVCAR-3, 168 h, 7 days incubation
Protocol: (§1) MCF7, T47D, OVCAR3 and HCC1806 cells were inoculated in 96-well plates at 3000, 3000, 2500, and 2000 cells/well, respectively, and cultured overnight at 37° C., 5% C02 incubator.
(§2) 1. […] Then 2.5 μl of the stock solution was dissolved in 497.5 μl of DMSO-free medium, and then a 3-fold serial gradient dilution was performed with 0.1% DMSO medium for a total of 9 concentrations, and the concentrations of the compounds after dilution were as follows: • 10000 nM, 3333.33 nM, 1111.11 nM, 370.34 nM, 123.45 nM, 41.15 nM, 13.72 nM, 4.57 nM, and 1.52 nM. • b) After fully mixing, 20 μL of compound solutions were added into cell culture plates containing 80 μL of cells respectively, with 4 replicate wells for each concentration. • c) The cells were transferred to an incubator and incubated for 7 days, and exchanged with fresh culture medium containing the same concentration of compounds when incubated to day 4. 2. MTT assay • a) The cell culture plate was taken out and 10 μL of 5 mg/ml MTT was added to the hood. • b) The cell culture plate was put back into the incubator and continued to incubate for 3 hours. • c) The cell culture plate was taken out to remove the culture medium, and 100 μL of isopropanol (0.4 mMHCl, 0.4% NP40) was added to the plate, and the plate was shaken on a shaker at room temperature for 30 minutes and read at 570 nm. 3. Data analysis
(§3) The survival rate (% Cell Survival) was calculated using the following equation:
(§4) % Cell Survival=100%×(OD_Sample−OD_LCave)/(OD_HC−OD_LCave) • OD_HC: 0.1‰ cell readings of DMSO control • OD_Sample: cell readings of compound addition • OD_LC: readings of blank medium • Analyed by Prizm: Dose-response-Inhibition Log(inhibitor) vs response (three parameters for the best fit)
(§5) IC50 (nM) values were calculated by concentration-response curve fitting.

[2] = system: T47D cells; test: Cell proliferation inhibition assay (MTT, 7 days); format: cell-based; settings: Homo sapiens, 168 h, 7 days incubation
Protocol: as §1, §2, §3, §4, §5

[3] = system: HCC1806 cells; test: Cell proliferation inhibition assay (MTT, 7 days); format: cell-based; settings: Homo sapiens, HCC1806, 168 h, HCC1086 [sic], 7 days incubation
Protocol: as §1, §2, §3, §4, §5

[4] = system: MCF7 cells; test: Cell proliferation inhibition assay (MTT, 7 days); format: cell-based; settings: Homo sapiens, 168 h, 7 days incubation
Protocol: as §1, §2, §3, §4, §5

[5] = molecular target: CDK4/CycD3 (Homo sapiens, UniProt P11802); test: Enzyme activity test; format: biochemical;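 further: values come from the source column headed CDK4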
Protocol: (§6) • 1. The test compounds and pabocinib were configured into a […] solution of DMSO; • 2. 20 nL of stock solution was transferred to a 384-well plate using Echo550. DMSO was used as a blank control.
(§7) • 1. according to the following table to prepare 1.3X enzyme solution containing enzyme, substrate and cofactor; • 2. 15 μL of 1.3X enzyme solution was added to each well and the mixture was incubated for 30 min at room temperature; • 3. 5 μL of ATP solution was added to initiate the reaction. The final volume of each well was 20 μL; • 4. After incubation for 150 min at room temperature, 75 μL of termination buffer solution was added to terminate the experiment; • 5. The samples were analyzed using EZ reader.
(§8) The % inhibition was calculated using the following equation
(§9) The one treated with DMSO is the positive control (PC)
(§10) The one without enzyme is the negative control (NC)
(§11) % Inhibition=100-100*((CRPC−CRsample)/(CRPC−CRNC))

[6] = molecular target: CDK2/CycE1 (Homo sapiens, UniProt P24941); test: Enzyme activity test; format: biochemical;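 further: values come from the source column headed CDK2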
Protocol: as §6, §7, §8, §9, §10, §11

[7] = molecular target: CDK6/CycD1 (Homo sapiens, UniProt Q00534); test: Enzyme activity test; format: biochemical;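 further: values come from the source column headed CDK6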
Protocol: as §6, §7, §8, §9, §10, §11

Sequence of CDK4/CycD3 (P11802 whole entry, species assumed): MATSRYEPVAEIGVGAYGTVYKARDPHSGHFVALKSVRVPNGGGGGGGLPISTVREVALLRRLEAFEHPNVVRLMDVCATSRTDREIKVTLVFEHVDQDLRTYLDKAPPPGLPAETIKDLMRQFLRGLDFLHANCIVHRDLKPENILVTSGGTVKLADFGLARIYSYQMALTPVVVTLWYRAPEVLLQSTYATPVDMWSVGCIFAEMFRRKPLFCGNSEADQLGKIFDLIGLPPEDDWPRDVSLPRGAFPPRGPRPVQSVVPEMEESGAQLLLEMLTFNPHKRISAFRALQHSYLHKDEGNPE
Sequence of CDK4/CycD3 (P30281 whole entry partner, species assumed): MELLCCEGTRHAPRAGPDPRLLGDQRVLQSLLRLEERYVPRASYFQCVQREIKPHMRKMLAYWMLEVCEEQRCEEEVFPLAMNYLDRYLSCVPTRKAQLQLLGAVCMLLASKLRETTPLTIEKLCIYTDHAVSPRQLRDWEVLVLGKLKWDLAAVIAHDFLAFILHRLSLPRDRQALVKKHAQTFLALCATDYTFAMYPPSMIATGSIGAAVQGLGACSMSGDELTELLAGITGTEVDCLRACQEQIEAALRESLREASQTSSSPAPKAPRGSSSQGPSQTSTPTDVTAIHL
Sequence of CDK6/CycD1 (Q00534 whole entry, species assumed): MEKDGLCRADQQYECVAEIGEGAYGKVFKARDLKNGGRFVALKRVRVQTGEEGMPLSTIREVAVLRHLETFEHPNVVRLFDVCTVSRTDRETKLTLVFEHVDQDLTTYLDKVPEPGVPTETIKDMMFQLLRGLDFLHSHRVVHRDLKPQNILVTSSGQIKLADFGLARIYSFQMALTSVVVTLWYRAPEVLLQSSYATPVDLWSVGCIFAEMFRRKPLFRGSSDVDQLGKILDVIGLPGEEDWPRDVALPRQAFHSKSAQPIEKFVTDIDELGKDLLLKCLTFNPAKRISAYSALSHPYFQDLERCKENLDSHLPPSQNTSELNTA
Sequence of CDK6/CycD1 (P24385 whole entry partner, species assumed): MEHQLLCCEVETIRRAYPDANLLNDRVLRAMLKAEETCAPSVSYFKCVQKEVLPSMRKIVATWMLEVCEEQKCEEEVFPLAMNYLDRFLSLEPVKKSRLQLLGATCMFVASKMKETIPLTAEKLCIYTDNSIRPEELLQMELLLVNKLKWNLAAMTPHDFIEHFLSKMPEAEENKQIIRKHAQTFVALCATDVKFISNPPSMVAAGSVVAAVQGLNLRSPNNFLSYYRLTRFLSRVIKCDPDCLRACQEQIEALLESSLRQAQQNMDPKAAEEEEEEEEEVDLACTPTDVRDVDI

IC50 [1]	IC50 [2]	IC50 [3]	IC50 [4]	IC50 [5]	IC50 [6]	IC50 [7]	Compound
≤ 50 nM	≤ 50 nM	≤ 50 nM	≤ 50 nM	< 10 nM	< 10 nM	< 10 nM	C[C@@]1(O)CCC[C@H]1n1c(=O)c(OC(F)F)cc2cnc(NC3CCN(S(=O)(=O)c4ccc(C#N)cc4)CC3)nc21 [Example 6]
≤ 50 nM	≤ 50 nM	50 to 5200 nM	50 to 5200 nM	10 to 100 nM	< 10 nM	< 10 nM	C[C@@]1(O)CCC[C@H]1n1c(=O)c(OC(F)F)cc2cnc(NC3CCN(S(=O)(=O)c4ccccc4F)CC3)nc21 [Example 25]
≤ 50 nM	≤ 50 nM	≤ 50 nM	≤ 50 nM	< 10 nM	< 10 nM	< 10 nM	C[C@@]1(O)CCC[C@H]1n1c(=O)c(OC(F)F)cc2cnc(NC3CCN(S(=O)(=O)c4ccc(S(C)(=O)=O)cc4)CC3)nc21 [Example 11]
≤ 50 nM	≤ 50 nM	≤ 50 nM	≤ 50 nM	< 10 nM	< 10 nM	< 10 nM	C[C@@]1(O)CCC[C@H]1n1c(=O)c(OC(F)F)cc2cnc(NC3CCN(S(=O)(=O)c4ccccc4)CC3)nc21 [Example 16]
≤ 50 nM	≤ 50 nM	50 to 5200 nM	≤ 50 nM	< 10 nM	< 10 nM	< 10 nM	C[C@@]1(O)CCC[C@H]1n1c(=O)c(OC(F)F)cc2cnc(NC3CCN(S(=O)(=O)c4cccnc4)CC3)nc21 [Example 51]
≤ 50 nM	≤ 50 nM	50 to 5200 nM	≤ 50 nM	10 to 100 nM	< 10 nM	< 10 nM	CC(C)(O)Cn1cc(S(=O)(=O)N2CCC(Nc3ncc4cc(OC(F)F)c(=O)n([C@@H]5CCC[C@@]5(C)O)c4n3)CC2)cn1 [Example 75]
50 to 5200 nM	≤ 50 nM	50 to 5200 nM	50 to 5200 nM	10 to 100 nM	< 10 nM	< 10 nM	C[C@@]1(O)CCC[C@H]1n1c(=O)c(OC(F)F)cc2cnc(NC3CCN(S(=O)(=O)c4ccc(C(F)(F)F)cc4)CC3)nc21 [Example 5]
50 to 5200 nM	50 to 5200 nM	200 to 51000 nM	50 to 5200 nM	10 to 100 nM	< 10 nM	10 to 100 nM	CC(C)(C)c1ccc(S(=O)(=O)N2CCC(Nc3ncc4cc(OC(F)F)c(=O)n([C@@H]5CCC[C@@]5(C)O)c4n3)CC2)cc1 [Example 23]
50 to 5200 nM	≤ 50 nM	50 to 5200 nM	50 to 5200 nM	< 10 nM	< 10 nM	< 10 nM	C[C@@]1(O)CCC[C@H]1n1c(=O)c(OC(F)F)cc2cnc(NC3CCN(S(=O)(=O)c4ccc(F)cc4F)CC3)nc21 [Example 7]
≤ 50 nM	≤ 50 nM	≤ 50 nM	≤ 50 nM	< 10 nM	< 10 nM	< 10 nM	COc1ccc(S(=O)(=O)N2CCC(Nc3ncc4cc(OC(F)F)c(=O)n([C@@H]5CCC[C@@]5(C)O)c4n3)CC2)cc1 [Example 24]
≤ 50 nM	≤ 50 nM	50 to 5200 nM	50 to 5200 nM	10 to 100 nM	< 10 nM	< 10 nM	Cc1ccc(S(=O)(=O)N2CCC(Nc3ncc4cc(OC(F)F)c(=O)n([C@@H]5CCC[C@@]5(C)O)c4n3)CC2)cc1 [Example 8]
50 to 5200 nM	50 to 5200 nM	200 to 51000 nM	50 to 5200 nM	10 to 100 nM	< 10 nM	< 10 nM	CCCc1ccc(S(=O)(=O)N2CCC(Nc3ncc4cc(OC(F)F)c(=O)n([C@@H]5CCC[C@@]5(C)O)c4n3)CC2)cc1 [Example 28]
≤ 50 nM	≤ 50 nM	50 to 5200 nM	50 to 5200 nM	< 10 nM	< 10 nM	< 10 nM	COc1cccc(S(=O)(=O)N2CCC(Nc3ncc4cc(OC(F)F)c(=O)n([C@@H]5CCC[C@@]5(C)O)c4n3)CC2)c1 [Example 10]
≤ 50 nM	≤ 50 nM	≤ 50 nM	50 to 5200 nM	< 10 nM	< 10 nM	< 10 nM	C[C@@]1(O)CCC[C@H]1n1c(=O)c(OC(F)F)cc2cnc(NC3CCN(S(=O)(=O)c4ccc(F)c(F)c4)CC3)nc21 [Example 18]
≤ 50 nM	≤ 50 nM	50 to 5200 nM	50 to 5200 nM	10 to 100 nM	< 10 nM	< 10 nM	CN(C)c1ccc(S(=O)(=O)N2CCC(Nc3ncc4cc(OC(F)F)c(=O)n([C@@H]5CCC[C@@]5(C)O)c4n3)CC2)cc1 [Example 22]
≤ 50 nM	≤ 50 nM	50 to 5200 nM	50 to 5200 nM	10 to 100 nM	< 10 nM	< 10 nM	C[C@@]1(O)CCC[C@H]1n1c(=O)c(OC(F)F)cc2cnc(Nc3ccc4c(c3)CN(S(C)(=O)=O)C4)nc21 [Example 64]
50 to 5200 nM	≤ 50 nM	50 to 5200 nM	50 to 5200 nM	10 to 100 nM	< 10 nM	< 10 nM	C[C@@]1(O)CCC[C@H]1n1c(=O)c(OC(F)F)cc2cnc(NC3CCN(S(=O)(=O)c4cc(F)ccc4F)CC3)nc21 [Example 26]
50 to 5200 nM	50 to 5200 nM	50 to 5200 nM	50 to 5200 nM	< 10 nM	< 10 nM	< 10 nM	C[C@@]1(O)CCC[C@H]1n1c(=O)c(OC(F)F)cc2cnc(NC3CCN(S(=O)(=O)c4cc(F)cc(F)c4)CC3)nc21 [Example 15]
≤ 50 nM	≤ 50 nM	≤ 50 nM	≤ 50 nM	< 10 nM	< 10 nM	< 10 nM	C[C@@]1(O)CCC[C@H]1n1c(=O)c(OC(F)F)cc2cnc(NC3CCN(S(=O)(=O)c4cccc(F)c4)CC3)nc21 [Example 17]
≤ 50 nM	50 to 5200 nM	50 to 5200 nM	50 to 5200 nM	< 10 nM	< 10 nM	< 10 nM	C[C@@]1(O)CCC[C@H]1n1c(=O)c(OC(F)F)cc2cnc(NC3CCN(S(=O)(=O)c4ccccc4C#N)CC3)nc21 [Example 9]
50 to 5200 nM	≤ 50 nM	50 to 5200 nM	50 to 5200 nM	10 to 100 nM	< 10 nM	< 10 nM	COc1ccccc1S(=O)(=O)N1CCC(Nc2ncc3cc(OC(F)F)c(=O)n([C@@H]4CCC[C@@]4(C)O)c3n2)CC1 [Example 14]

Source: US20240287065A1, “COMPOUND AS CDK KINASE INHIBITOR AND USE THEREOF” (TYK MEDICINES (ZHENGZHOU) , INC., priority 2021, published 2024)
